# In patent US20030180345A1, “Compositions and methods for inhibiting islet dysfunction and autoimmune disorders” (priority 2000, published 2003):
# Like-named read-outs stand apart in the source and are kept apart here.
# Legend:
# fetal islet β cells = experiment: SNP-induced apoptosis in cultured fetal islets (TUNEL, confocal microscopy); format: cell-based, Wistar rats; conditions: SNP 100 μmol/l
# Description: Animals and Diets. Adult virgin female Wistar rats were caged overnight with males and copulation was verified the next morning. Animals were maintained at 25° C. with a 10 h-14 h dark-light cycle. Pregnant rats were divided into two groups and fed one of the following isocaloric diets: either a control diet (C) containing 20% protein or a low protein diet (LP) containing 8% protein. The composition of the diet was as described previously by Snoeck et al. 1990 (Biol. Neonate 57, 107-118). The diets were purchased from Hope Farms (Woerden, Holland). Animals in both the groups had free access to water at all times. At 21.5 days of gestation, females were sacrificed by decapitation and fetuses removed.
# Islet culture and treatment. Fetal islets were isolated as described by Mourmeaux et al. 1985 (Molecular and Cellular Endocrinology 39:237-246). Islets were cultured in 35 mm Petri-dishes (Falcon plastics, Los Angeles, Calif.) in RPMI 1640 medium (Gibco, Grand Island, N.Y., USA) with 10% Fetal Bovine Serum and antibiotics (penicillin 200 U/ml, streptomycin 0.2 mg/ml). Petri dishes were incubated at 37° C. with 5% CO2 in air. The culture medium was changed daily after the second day. On the 5th day of culture, islets were rinsed twice with serum free DME/F12 medium (1:1, v/v, Gibco, Paisley, Scotland) and subsequently incubated for 42 hours in this medium. […]
# TUNEL method for evaluating apoptosis. Apoptosis was evaluated by the TUNEL method described herein, and visualized with confocal microscopy. Cultured islets were fixed in methanol and stored at −20° C. until analysis. The tissue was then washed with phosphate buffered saline (PBS) for 3 min, and a terminal deoxynucleotidyl transferase (TdT) reaction buffer (50 μl) was added. The 50 μl of TdT solution was prepared using 10 μl of 5× concentrated buffer solution (1 mol/l potassium cacodylate; 125 mmol/l Tris-HCl, pH 6.6; 1.26 mg bovine serum albumin). Cobalt chloride (5 μl of 25 mmol/l), 0.5 μl (12.5 units) of TdT (both from Boehringer Mannheim, Germany), and 0.25 nmoles of BODIPY-FL-X-14-dUTP (Molecular Probes, Eugene, Oreg. USA) were added, along with distilled water, up to 50 μl. Islets were incubated in Petri dishes with the TdT reaction buffer for 60 min at 37° C., then rinsed twice with 15 mmol/l EDTA (pH 8.0) in PBS and once with 0.1% Triton X-100 in PBS. Then, 2 ml of PBS containing 2.5 μg/ml of propidium iodide (Molecular Probes, Eugene, Oreg. USA) was added to the dishes for 5 min. Finally, islet cells were washed with 15 mmol/l EDTA (pH 8.0). Islet cells were then double-labelled for apoptotic nuclei, showing the BODIPY-FL-dUTP label in […] and total nuclei with propidium iodide in red.
# Confocal microscopy. Staining probes were visualised through a confocal laser scanning microscopy system (MRC-1024 UV; BIO-RAD, UK) equipped with Argon ion and Krypton/Argon ion lasers. BODIPY-FL was excited at 503 nm, ethidium bromide at 510 nm, propidium iodide at 536 nm and Hoechst 33342 at 346 nm. The emissions were recorded respectively at 522/32 nm, 605/32 nm and 455/30 nm. Four to six optical sections were collected at every 15 μm through the islet. The number of BODIPY-FL-positive or ethidium bromide-positive nuclei were reported and expressed as a percentage of the total number of nuclei.
# Animals, diets, and fetal islet isolation procedures were conducted as described in Example 1.
# [1] = SIN-1
# Description: Chemiluminescence measurements. Luminol (5-amino-2,3-dihydro-1-4-phtalazinedione) at 400 μmol/l (Sigma Chemical Co.), taurine (0.3 or 3 mmol/l), methionine (0.1 or 1 mmol/l) and β-alanine (0.3 or 3 mmol/l) stock solutions were prepared in PBS. Sydnonimine (SIN-1), also known as 3-morpholinosydnonimine, a source of peroxynitrite, was purchased from Sigma Chemical Co. SIN-1 was prepared as 100 μmol in 1 mol/l NaOH. A reaction was initiated by simultaneous injection of luminol and SIN-1 into wells containing PBS either alone or with supplemental amino acid levels as noted above. Chemiluminescence emitted by luminol in the presence of peroxynitrite was measured every 30 seconds over 20 minutes in a chemifluorophotometer (MicroLumat LB96P, EG&G BERTHOLD), and was quantified as light intensity (10^8 RLU).
# Nitric oxide is a reactive free radical which leads to peroxynitrite formation, another reactive free radical, by interaction with superoxide (NO+OO^−→ONOO^−). […] Luminol-derived chemiluminescence induced by peroxynitrite produced by the decomposition of sydnonimine (SIN-1) was evaluated to investigate the possibility that taurine quenched the peroxynitrite formed from NO.
# fetal islet cells = experiment: IL1β-induced apoptosis in cultured fetal islets (TUNEL); format: cell-based, Wistar rats; conditions: 50 U/ml IL 1β for 24 hours; C and LP groups
# Description: The effect of in vitro taurine on the effect of IL1β-induced apoptosis was assessed. Fetal islets were isolated as described above in Example 1. On the 5th day of culture, islets were rinsed twice with serum free DME/F12 medium (1:1, v/v, Gibco, Paisley, Scotland) and were incubated in this medium supplemented with taurine at 0.3 or 3 mmol/l for 48 hours. For the final 24 hours of this incubation, IL1β (Endogen, Woburn, Mass.) was added to the incubation medium at a level of 50 U/ml. Apoptosis was quantified by confocal microscopy using TUNEL method, as outlined in Example 1.
compound,measurement,setting,value
"CC(=O)N(O)CCCCCNC(=O)CCC(=O)N(O)CCCCCNC(=O)CCC(=O)N(O)CCCCCN [DFO, desferioxamine, reference compound]",reduction of the cell death induced by SNP,"fetal islet β cells; LP and C islets, data not shown",about 30%
"CSCC[C@H](N)C(=O)O [methionine, L-Methionine]",apoptosis rate,"fetal islet β cells; 0.1 mmol/l methionine, regardless of diet",significantly decreased
same,apoptosis rate,fetal islet β cells; 1.0 mmol/l methionine vs physiological concentration,did not provide additional protection
same,luminol chemiluminescence (peroxynitrite quenching),[1]; methionine 0.1 or 1 mmol/l,No change
"NCCC(=O)O [β-alanine, 3-aminopropanoic acid, reference compound]",rate of apoptosis / protection against damage induced by NO,fetal islet β cells; β-alanine 0.3 or 3 mmol/l,no protective effect
same,luminol chemiluminescence (peroxynitrite quenching),[1]; β-alanine 0.3 or 3 mmol/l,no change
IL 1β: macrophage-derived proinflammatory cytokine used to induce islet cell apoptosis,apoptosis level of fetal islets,fetal islet cells,increased the apoptosis level
